In experiment [1] the target is T1, STAT3 protein (Homo sapiens, UniProt P40763). Kind of experiment: Western blotting of STAT3 degradation in Molm-16 cells. In kind it is cell-based. In general terms: A western blot detects proteins with antibodies after separation by electrophoresis.
Experiment [2] has as its target T1, STAT3 protein. Kind of experiment: Western blotting of STAT3 degradation in SU-DHL-1 cells. In kind it is cell-based. Particulars: SU-DHL-1 cells, ratio of DC50.

T1 sequence (P40763 whole entry): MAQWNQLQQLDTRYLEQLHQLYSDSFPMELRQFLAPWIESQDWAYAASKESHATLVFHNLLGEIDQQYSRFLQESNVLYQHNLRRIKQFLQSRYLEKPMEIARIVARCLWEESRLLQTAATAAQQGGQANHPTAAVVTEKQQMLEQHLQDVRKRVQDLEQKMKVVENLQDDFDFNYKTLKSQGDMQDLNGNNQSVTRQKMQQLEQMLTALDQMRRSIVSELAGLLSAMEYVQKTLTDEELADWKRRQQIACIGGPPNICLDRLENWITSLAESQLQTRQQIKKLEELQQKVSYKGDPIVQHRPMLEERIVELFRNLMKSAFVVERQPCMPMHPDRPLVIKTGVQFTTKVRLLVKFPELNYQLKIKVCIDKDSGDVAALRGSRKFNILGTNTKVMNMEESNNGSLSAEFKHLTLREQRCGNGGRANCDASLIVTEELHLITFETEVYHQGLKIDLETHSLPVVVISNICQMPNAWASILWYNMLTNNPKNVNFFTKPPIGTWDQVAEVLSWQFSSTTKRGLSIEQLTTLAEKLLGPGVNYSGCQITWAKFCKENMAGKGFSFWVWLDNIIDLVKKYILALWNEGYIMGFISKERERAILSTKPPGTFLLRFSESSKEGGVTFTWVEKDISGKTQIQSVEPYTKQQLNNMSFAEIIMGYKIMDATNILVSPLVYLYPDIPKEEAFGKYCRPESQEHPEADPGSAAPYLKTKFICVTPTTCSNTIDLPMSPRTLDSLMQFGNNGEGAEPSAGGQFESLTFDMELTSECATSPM

In the case of `NC(=O)CC[C@H](NC(=O)[C@@H]1CC[C@@H]2CCN(C(=O)CCCC#Cc3cccc4c3CN(C3CCC(=O)NC3=O)C4=O)C[C@H](NC(=O)c3cc4cc(C(F)(F)P(=O)(O)O)ccc4[nH]3)C(=O)N21)C(=O)NC(c1ccccc1)c1ccccc1` (stereo partly drawn) [Compound 12, ((2-(((5S,8S,10aR)-8-(((S)-5-Amino-1-(benzhydrylamino)-1,5-dioxopentan-2-yl)carbamoyl)-3-(6-(2-(2,6-dioxopiperidin-3-yl)-1-oxoisoindolin-4-yl)hex-5-ynoyl)-6-oxodecahydropyrrolo-[1,2-a][1,5]diazocin-5-yl)carbamoyl)-1H-indol-5-yl)-difluoromethyl)phosphonic Acid], the “effect on the level of total STAT3 protein” value on STAT3 protein [1] (Molm-16, 4 h, concentrations up to 1 μM) was “no effect”. In addition, on STAT3 protein [1] (Molm-16, 4 h, up to / at 1 μM), the “effect on the level of pSTAT3^Y705 protein” value is listed as “only minimally”.

With `NC(=O)CC[C@H](NC(=O)[C@@H]1CC[C@@H]2CCN(C(=O)CCCCCC#Cc3ccc4c(c3)CN(C3CCC(=O)NC3=O)C4=O)C[C@H](NC(=O)c3cc4cc(C(F)(F)P(=O)(O)O)ccc4[nH]3)C(=O)N21)C(=O)NC(c1ccccc1)c1ccccc1` (stereo partly drawn) [Compound 28, ((2-(((5S,8S,10aR)-8-(((S)-5-Amino-1-(benzhydrylamino)-1,5-dioxopentan-2-yl)carbamoyl)-3-(8-(2-(2,6-dioxopiperidin-3-yl)-1-oxoisoindolin-5-yl)oct-7-ynoyl)-6-oxodecahydropyrrolo-[1,2-a][1,5]diazocin-5-yl)carbamoyl)-1H-indol-5-yl)difluoromethyl)phosphonic Acid], the “times less potent than SD-36 in STAT3 degradation” value at STAT3 protein [1] (Molm-16 cells, ratio of DC50) was 5–10 times.

For `NC(=O)CC[C@H](NC(=O)[C@@H]1CC[C@@H]2CCN(C(=O)CC(=O)N3CCC(C#Cc4cccc5c4CN(C4CCC(=O)NC4=O)C5=O)CC3)C[C@H](NC(=O)c3cc4cc(C(F)(F)P(=O)(O)O)ccc4[nH]3)C(=O)N21)C(=O)NC(c1ccccc1)c1ccccc1` (stereo partly drawn) [Compound 24, ((2-(((5S,8S,10aR)-8-(((S)-5-Amino-1-(benzhydrylamino)-1,5-dioxopentan-2-yl)carbamoyl)-3-(3-(4-((2-(2,6-dioxopiperidin-3-yl)-1-oxoisoindolin-4-yl)ethynyl)piperidin-1-yl)-3-oxopropanoyl)-6-oxodecahydropyrrolo[1,2-a][1,5]diazocin-5-yl)-carbamoyl)-1H-indol-5-yl)difluoromethyl)phosphonic Acid], the “times less potent than SD-36 in STAT3 degradation” value at STAT3 protein [1] (Molm-16 cells, ratio of DC50) is listed as 6 times.

Turning to `NC(=O)CC[C@H](NC(=O)[C@@H]1CC[C@@H]2CCN(C(=O)c3cnn(CCCC#Cc4cccc5c4CN(C4CCC(=O)NC4=O)C5=O)c3)C[C@H](NC(=O)c3cc4cc(C(F)(F)P(=O)(O)O)ccc4[nH]3)C(=O)N21)C(=O)NC(c1ccccc1)c1ccccc1` (stereo partly drawn) [Compound 20, ((2-(((5S,8S,10aR)-8-(((S)-5-Amino-1-(benzhydrylamino)-1,5-dioxopentan-2-yl)carbamoyl)-3-(1-(5-(2-(2,6-dioxopiperidin-3-yl)-1-oxoisoindolin-4-yl)pent-4-yn-1-yl)-1H-pyrazole-4-carbonyl)-6-oxodecahydropyrrolo[1,2-a][1,5]diazocin-5-yl)-carbamoyl)-1H-indol-5-yl)difluoromethyl)phosphonic Acid], at STAT3 protein [1] (Molm-16 cells, ratio of DC50), the “times less potent than SD-36 in STAT3 degradation” value was 3–4 times.

Regarding `NC(=O)CC[C@H](NC(=O)[C@@H]1CC[C@@H]2CCN(C(=O)CCCCCC#Cc3ccc4c(c3)C(=O)N(C3CCC(=O)NC3=O)C4)C[C@H](NC(=O)c3cc4cc(C(F)(F)P(=O)(O)O)ccc4[nH]3)C(=O)N21)C(=O)NC(c1ccccc1)c1ccccc1` (stereo partly drawn) [Compound 29, ((2-(((5S,8S,10aR)-8-(((S)-5-Amino-1-(benzhydrylamino)-1,5-dioxopentan-2-yl)carbamoyl)-3-(8-(2-(2,6-dioxopiperidin-3-yl)-3-oxoisoindolin-5-yl)oct-7-ynoyl)-6-oxodecahydropyrrolo-[1,2-a][1,5]diazocin-5-yl)carbamoyl)-1H-indo 1–5-yl)difluoromethyl)phosphonic Acid], the “times less potent than SD-36 in STAT3 degradation” value at STAT3 protein [1] (Molm-16 cells, ratio of DC50) is on record as 5–10 times.

As for `NC(=O)CC[C@H](NC(=O)[C@@H]1CC[C@@H]2CCN(C(=O)CCCn3cc(C#Cc4cccc5c4CN(C4CCC(=O)NC4=O)C5=O)cn3)C[C@H](NC(=O)c3cc4cc(C(F)(F)P(=O)(O)O)ccc4[nH]3)C(=O)N21)C(=O)NC(c1ccccc1)c1ccccc1` (stereo partly drawn) [Compound 21, ((2-(((5S,8S,10aR)-8-(((S)-5-Amino-1-(benzhydrylamino)-1,5-dioxopentan-2-yl)carbamoyl)-3-(4-(4-((2-(2,6-dioxopiperidin-3-yl)-1-oxoisoindolin-4-yl)ethynyl)-1H-pyrazol-1-yl)butanoyl)-6-oxodecahydropyrrolo[1,2-a][1,5]diazocin-5-yl)carbamoyl)-1H-indol-5-yl)difluoromethyl)phosphonic Acid], the “times less potent than SD-36 in STAT3 degradation” value at STAT3 protein [1] (Molm-16 cells, ratio of DC50) was 3–4 times.

For `NC(=O)CC[C@H](NC(=O)[C@@H]1CC[C@@H]2CCN(C(=O)CCCCCCNc3cccc4c3CN(C3CCC(=O)NC3=O)C4=O)C[C@H](NC(=O)c3cc4cc(C(F)(F)P(=O)(O)O)ccc4[nH]3)C(=O)N21)C(=O)NC(c1ccccc1)c1ccccc1` (stereo partly drawn) [Compound 26, ((2-(((5S,8S,10aR)-8-(((S)-5-Amino-1-(benzhydrylamino)-1,5-dioxopentan-2-yl)carbamoyl)-3-(7-((2-(2,6-dioxopiperidin-3-yl)-1-oxoisoindolin-4-yl)amino)heptanoyl)-6-oxodecahydropyrrolo[1,2-a][1,5]diazocin-5-yl)carbamoyl)-1H-indol-5-yl)difluoromethyl)phosphonic Acid], the “times less potent than SD-36 in STAT3 degradation” value at STAT3 protein [1] (Molm-16 cells, ratio of DC50) is 2–3 times.

`NC(=O)CC[C@H](NC(=O)[C@@H]1CC[C@@H]2CCN(C(=O)CCCCC#Cc3cccc4c3CN(C3CCC(=O)NC3=O)C4=O)C[C@H](NC(=O)c3cc4cc(C(F)(F)P(=O)(O)O)ccc4[nH]3)C(=O)N21)C(=O)NC(c1ccccc1)c1ccccc1` (stereo partly drawn) [Compound 13, ((2-(((5S,8S,10aR)-8-(((S)-5-Amino-1-(benzhydrylamino)-1,5-dioxopentan-2-yl)carbamoyl)-3-(7-(2-(2,6-dioxopiperidin-3-yl)-1-oxoisoindolin-4-yl)hept-6-ynoyl)-6-oxodecahydropyrrolo[1,2-a][1,5]diazocin-5-yl)carbamoyl)-1H-indol-5-yl)difluoromethyl)phosphonic Acid]: at STAT3 protein [1] (Molm-16 cells, ratio of DC50), the “times more potent than 12 in STAT3 degradation” value was found to be 10 times.

With `NC(=O)CC[C@H](NC(=O)[C@@H]1CC[C@@H]2CCN(C(=O)OCCCCC#Cc3cccc4c3CN(C3CCC(=O)NC3=O)C4=O)C[C@H](NC(=O)c3cc4cc(C(F)(F)P(=O)(O)O)ccc4[nH]3)C(=O)N21)C(=O)NC(c1ccccc1)c1ccccc1` (stereo partly drawn) [Compound 18, ((2-(((5S,8S,10aR)-8-(((S)-5-Amino-1-(benzhydrylamino)-1,5-dioxopentan-2-yl)carbamoyl)-3-(((6-(2-(2,6-dioxopiperidin-3-yl)-1-oxoisoindolin-4-yl)hex-5-yn-1-yl)oxy)carbonyl)-6-oxodecahydropyrrolo[1,2-a][1,5]diazocin-5-yl)carbamoyl)-1H-indol-5-yl)difluoromethyl)phosphonic Acid], the “times less potent than SD-36 in STAT3 degradation” value on STAT3 protein [2] is listed as 2 times.

As for `NC(=O)CC[C@H](NC(=O)[C@@H]1CC[C@@H]2CCN(C(=O)CCCCCCCc3cccc4c3CN(C3CCC(=O)NC3=O)C4=O)C[C@H](NC(=O)c3cc4cc(C(F)(F)P(=O)(O)O)ccc4[nH]3)C(=O)N21)C(=O)NC(c1ccccc1)c1ccccc1` (stereo partly drawn) [Compound 25, ((2-(((5S,8S,10aR)-8-(((S)-5-Amino-1-(benzhydrylamino)-1,5-dioxopentan-2-yl)carbamoyl)-3-(8-(2-(2,6-dioxopiperidin-3-yl)-1-oxoisoindolin-4-yl)octanoyl)-6-oxodecahydropyrrolo-[1,2-a][1,5]diazocin-5-yl)-carbamoyl)-1H-indol-5-yl)-difluoromethyl)phosphonic Acid], the “times less potent than SD-36 in STAT3 degradation” value on STAT3 protein [1] (Molm-16 cells, ratio of DC50) is 2–3 times.

With `NC(=O)CC[C@H](NC(=O)[C@@H]1CC[C@@H]2CCN(C(=O)CCN3CCC(C#Cc4cccc5c4CN(C4CCC(=O)NC4=O)C5=O)CC3)C[C@H](NC(=O)c3cc4cc(C(F)(F)P(=O)(O)O)ccc4[nH]3)C(=O)N21)C(=O)NC(c1ccccc1)c1ccccc1` (stereo partly drawn) [Compound 23, ((2-(((5S,8S,10aR)-8-(((S)-5-Amino-1-(benzhydrylamino)-1,5-dioxopentan-2-yl)carbamoyl)-3-(3-(4-((2-(2,6-dioxopiperidin-3-yl)-1-oxoisoindolin-4-yl)ethynyl)piperidin-1-yl)propanoyl)-6-oxodecahydropyrrolo[1,2-a][1,5]diazocin-5-yl)carbamoyl)-1H-indol-5-yl)difluoromethyl)phosphonic Acid], the “times less potent than SD-36 in STAT3 degradation” value at STAT3 protein [1] (Molm-16 cells, ratio of DC50) turned out to be 40 times.

Take `NC(=O)CC[C@H](NC(=O)[C@@H]1CC[C@@H]2CCN(C(=O)CCCCCCCCC#Cc3cccc4c3CN(C3CCC(=O)NC3=O)C4=O)C[C@H](NC(=O)c3cc4cc(C(F)(F)P(=O)(O)O)ccc4[nH]3)C(=O)N21)C(=O)NC(c1ccccc1)c1ccccc1` (stereo partly drawn) [Compound 16, ((2-(((5S,8S,10aR)-8-(((S)-5-Amino-1-(benzhydrylamino)-1,5-dioxopentan-2-yl)carbamoyl)-3-(11-(2-(2,6-dioxopiperidin-3-yl)-1-oxoisoindolin-4-yl)undec-10-ynoyl)-6-oxodecahydropyrrolo[1,2-a][1,5]diazocin-5-yl)carbamoyl)-1H-indol-5-yl)difluoromethyl)phosphonic Acid]: the “times less potent than SD-36 in STAT3 degradation” value on STAT3 protein [1] (Molm-16 cells, ratio of DC50) is 2–3 times.

As to `NC(=O)CC[C@H](NC(=O)[C@@H]1CC[C@@H]2CCN(C(=O)N3CCC(CCC#Cc4cccc5c4CN(C4CCC(=O)NC4=O)C5=O)CC3)C[C@H](NC(=O)c3cc4cc(C(F)(F)P(=O)(O)O)ccc4[nH]3)C(=O)N21)C(=O)NC(c1ccccc1)c1ccccc1` (stereo partly drawn) [Compound 22, ((2-(((5S,8S,10aR)-8-(((S)-5-Amino-1-(benzhydrylamino)-1,5-dioxopentan-2-yl)carbamoyl)-3-(4-(4-(2-(2,6-dioxopiperidin-3-yl)-1-oxoisoindolin-4-yl)but-3-yn-1-yl)piperidine-1-carbon-yl)-6-oxodecahydropyrrolo[1,2-a][1,5]diazocin-5-yl)-carbamoyl)-1H-indol-5-yl)difluoromethyl)phosphonic Acid], the “times less potent than SD-36 in STAT3 degradation” value at STAT3 protein [1] (Molm-16 cells, ratio of DC50) turned out to be 3 times.
